Values of other authors, collected in US11946086B2, “Gene involved in synthesis of cyclic peptide compound, method for producing cyclic peptide compound using the same, and transformant comprising the same” (NATIONAL INSTITUTE OF ADVANCED INDUSTRIAL SCIENCE AND …, priority 2017, dated 2024).
Non-standard residues stand in square brackets, D forms with d. Residues, ends and D or L forms follow the SMILES beside them. NMeI = CC[CH](C)[CH](NC)C(=O)O; NMeD = CN[CH](CC(=O)O)C(=O)O; NMeV = CN[CH](C(=O)O)C(C)C; Pip = O=C(O)[CH]1CCCCN1; Lac = C[CH](O)C(=O)O

System: plant pathogenic bacteria, and, in particular, fungi
Settings: against plant pathogenic bacteria

CCC(C)C1C(=O)NCC(=O)N(C)C(C(C)C)C(=O)NC(Cc2ccc(OC)cc2)C(=O)OC(C)C(=O)N2CCCCC2C(=O)N(C)C(C(C)C)C(=O)NC(C(C)C)C(=O)N(C)C(CC(=O)O)C(=O)N(C)C(C(C)C)C(=O)N1C (stereo not shown) [KK-1, Tyrosine, N-[N-[N-[N-[N-[N-[N-[N-[[1-(2-hydroxy-1-oxopropyl)-2-piperidinyl]carbonyl]-N-methylvalyl]valyl]-N-methyl-a-aspartyl]-N-methylvalyl]-N-methylisoleucyl]glycyl]-N-methylvalyl]-O-methyl-, d2-lactone (9CI)] (cyclo(G[NMeV]Y(Me)[Lac][Pip][NMeV]V[NMeD][NMeV][NMeI]); configuration not given here)
bactericidal activity: potent bactericidal activity
